Here are results for 13 compounds from publication PMC11591893, “Exploring the Antidiabetic and Antihypertensive Potential of Peptides Derived from Bitter Melon Seed Hydrolysate” (Biomedicines, 2024).

The term IC50 denotes the concentration at which inhibition is half-maximal. For orientation: inhibition means how much of the control response was suppressed.

Series [1] addresses T1, recombinant human dipeptidyl peptidase-IV (DPP4) (Homo sapiens, UniProt P27487).
T1 construct: purchased Sigma–Aldrich Co
Nature of the series: DPP4 inhibitory activity and IC50 (GP-pNA substrate, absorbance of pNA at 405 nm). The series is classed as biochemical. The following applies: for IC50: synthetic peptides; for inhibition at 2000 µM / DPP4 inhibitory activity: synthetic peptides at 2 mM. The procedure:
(§1) The DPP4 inhibitory activity was studied following Hung et al.. All the reagents and samples were dissolved in 0.1 M Tris-HCl buffer, pH 8. First, 25 µL of 1.6 mM GP-pNA was premixed with 25 µL of sample and incubated at 37 °C for 10 min. Then, 50 µL of 0.5 U/µL DPP4 was added. The reaction was set at 37 °C for one hour. 100 µL of 1 M sodium acetate at pH 4 was added to stop the enzymatic reaction. Using a PowerWave XS (Biotek®, Winooski, VT, USA) 96-well microplate reader, the absorbance of pNA, which was generated by the DPP4 and GP-pNA reactions, was measured at 405 nm. DPP4 inhibitory activity was examined by the following formula:(1) DPP4 inhibitory activity%=pNA(no inhibitor)−pNA(inhibitor)/pNA(no inhibitor)×100%,
The absorbances of pNA obtained in the presence and absence of an inhibitor were referred to as pNA (inhibitor) and pNA (no inhibitor), respectively. The DPP4 half-maximal inhibitory concentration (DPP4 IC50) was determined by plotting at least five logarithmic concentrations of the inhibitor versus their DPP4 inhibition (%) to construct a nonlinear regression.

For series [2], the target named is T2, angiotensin-I-converting enzyme (ACE) from rabbit lungs (Oryctolagus cuniculus, UniProt P12822).
T2 construct: angiotensin-I-converting enzyme (ACE) from rabbit lungs; purchased Sigma–Aldrich Co; host or cells: rabbit lung tissue
T2 sequence (P12822 34-1310): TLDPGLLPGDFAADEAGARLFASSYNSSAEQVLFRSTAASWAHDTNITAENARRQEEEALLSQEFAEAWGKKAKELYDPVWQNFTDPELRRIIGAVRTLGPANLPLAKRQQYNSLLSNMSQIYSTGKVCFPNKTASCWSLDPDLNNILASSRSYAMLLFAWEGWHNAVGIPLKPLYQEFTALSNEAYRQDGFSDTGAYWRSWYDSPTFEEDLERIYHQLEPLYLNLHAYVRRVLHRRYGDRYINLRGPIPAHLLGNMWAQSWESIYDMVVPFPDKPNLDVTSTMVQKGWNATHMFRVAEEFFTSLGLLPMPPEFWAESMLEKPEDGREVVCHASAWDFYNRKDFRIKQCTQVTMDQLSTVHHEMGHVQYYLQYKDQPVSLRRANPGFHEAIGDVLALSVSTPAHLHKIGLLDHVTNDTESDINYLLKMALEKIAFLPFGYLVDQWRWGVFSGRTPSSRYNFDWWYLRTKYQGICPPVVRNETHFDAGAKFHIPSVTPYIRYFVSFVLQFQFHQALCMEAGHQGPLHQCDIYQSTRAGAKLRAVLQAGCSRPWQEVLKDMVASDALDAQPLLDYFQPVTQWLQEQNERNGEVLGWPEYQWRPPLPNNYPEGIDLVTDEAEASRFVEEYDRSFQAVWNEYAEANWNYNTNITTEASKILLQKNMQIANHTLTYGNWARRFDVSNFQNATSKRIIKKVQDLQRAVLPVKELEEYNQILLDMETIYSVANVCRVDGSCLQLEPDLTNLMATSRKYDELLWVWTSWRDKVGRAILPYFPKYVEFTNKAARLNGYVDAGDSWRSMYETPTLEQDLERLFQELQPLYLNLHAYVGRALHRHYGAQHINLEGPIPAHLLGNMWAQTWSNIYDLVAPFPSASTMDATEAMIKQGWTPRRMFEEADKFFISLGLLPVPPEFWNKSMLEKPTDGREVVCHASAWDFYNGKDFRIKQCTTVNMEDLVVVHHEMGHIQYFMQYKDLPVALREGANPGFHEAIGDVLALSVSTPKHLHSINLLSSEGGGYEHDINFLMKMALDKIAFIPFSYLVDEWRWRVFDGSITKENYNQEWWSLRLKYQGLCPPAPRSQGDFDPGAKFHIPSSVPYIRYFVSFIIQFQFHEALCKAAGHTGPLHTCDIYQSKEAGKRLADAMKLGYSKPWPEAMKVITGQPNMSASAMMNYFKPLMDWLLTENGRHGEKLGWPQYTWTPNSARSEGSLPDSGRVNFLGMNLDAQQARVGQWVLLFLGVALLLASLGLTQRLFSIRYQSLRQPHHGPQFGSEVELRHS
Description: Peptide inhibition mechanism toward ACE (Lineweaver–Burk plot). It counts as biochemical. As to conditions: HHL 0.625, 1.25, 5 mM. The protocol: (§2) The ACE inhibitory activity was investigated following Cushman and Cheung, with some modifications. First, 30 µL of 2.5 mM HHL was premixed with 10 µL of the sample at 37 °C for 5 min. Then, 20 µL of 0.05 mU/µL ACE was added. The reaction was maintained at 37 °C for one hour. Afterward, 60 µL of 1 N HCl was added to stop the reaction, and 10 µL of 0.2 µg/µL ferulic acid was used as an internal standard. All the reagents and samples were dissolved in pH 8.3 ACE buffer (760 mM boric acid, 300 mM NaCl, and 200 mM NaOH). Using UV-Vis RP-HPLC (Hitachi High-Tech Co., Tokyo, Japan), the area of HA, as the product of ACE and HHL reactions, was measured at 228 nm. An elution with 23% ACN and 0.1% TFA was used at a flow rate of 1 mL/min for 15 min to separate the analytes. ACE inhibitory activity was determined by the following formula:(2) ACE inhibitory activity%=HA(no inhibitor)−HA(inhibitor)/HA(no inhibitor)×100%
The inhibition mechanism of peptides on DPP4 and ACE was studied using the inhibitory assays described previously. […] Meanwhile, the HA production rate was determined with and without the inhibitor using HHL concentrations of 0.625, 1.25, and 5 mM to assess the peptide inhibition mechanism against ACE through a Lineweaver–Burk plot.

Series [3] has as its target T1, recombinant human dipeptidyl peptidase-IV (DPP4). Nature of the series: Peptide inhibition mechanism toward DPP4 (Lineweaver–Burk plot). The series is classed as biochemical. The following applies: GP-pNA 0.8, 1.6, 3.2 mM. The protocol:
as §1
The inhibition mechanism of peptides on DPP4 and ACE was studied using the inhibitory assays described previously. The peptide inhibition mechanism toward DPP4 was identified by generating a Lineweaver–Burk plot using the production rates of pNA in the presence and absence of the inhibitor at GP-pNA concentrations of 0.8, 1.6, and 3.2 mM. Meanwhile, the HA production rate was determined with and without the inhibitor using HHL concentrations of 0.625, 1.25, and 5 mM to assess the peptide inhibition mechanism against ACE through a Lineweaver–Burk plot.

Series [4] relates to pepsin, trypsin and α-chymotrypsin. Nature of the series: Stability against simulated gastrointestinal (SGI) digestion (pepsin, then trypsin and α-chymotrypsin; LC-MS). It counts as in vitro ADME. The following applies: pepsin ninety minutes, then α-chymotrypsin and trypsin three hours, 37 °C. The protocol: The peptide stability against SGI digestion was investigated by following the research of Gu and Wu, with some modifications. All the SGI enzyme-to-peptide ratios were fixed at 2%. The synthesized peptides MW4 and VF7 were dissolved in 35 mM NaCl buffer (pH 2.0) and digested by pepsin at 37 °C for ninety minutes, respectively. Next, the pH was adjusted to 7–8. Half of each sample was boiled for 15 min to terminate pepsin digestion. The other half of the sample was treated with trypsin and α-chymotrypsin and the reaction was continued at 37 °C for three hours, followed by boiling for 15 min to stop the reaction. An LC-MS analysis was employed to assess the resistance of peptides to SGI digestion.

Series [5] addresses T2, angiotensin-I-converting enzyme (ACE) from rabbit lungs. Description: ACE inhibitory activity and IC50 (HHL substrate, HA by RP-HPLC). It counts as biochemical. The procedure:
as §2
The areas of HA acquired in the presence and absence of an inhibitor were referred to as HA (inhibitor) and HA (no inhibitor), respectively. The ACE half-maximal inhibitory concentration (ACE IC50) was performed by plotting at least five logarithmic concentrations of the inhibitor versus their ACE inhibition (%) to construct a nonlinear regression.

In another series the test system is DPP4. The following applies: cited from earlier work.
In a further series the test system is ACE. As to conditions: cited from earlier work.

“Also recorded” adds a separate entry of the source. Where a SMILES comes first, the peptide text is derived from it. Where no end group is shown, it is not given here.

T1 sequence (P27487 whole entry): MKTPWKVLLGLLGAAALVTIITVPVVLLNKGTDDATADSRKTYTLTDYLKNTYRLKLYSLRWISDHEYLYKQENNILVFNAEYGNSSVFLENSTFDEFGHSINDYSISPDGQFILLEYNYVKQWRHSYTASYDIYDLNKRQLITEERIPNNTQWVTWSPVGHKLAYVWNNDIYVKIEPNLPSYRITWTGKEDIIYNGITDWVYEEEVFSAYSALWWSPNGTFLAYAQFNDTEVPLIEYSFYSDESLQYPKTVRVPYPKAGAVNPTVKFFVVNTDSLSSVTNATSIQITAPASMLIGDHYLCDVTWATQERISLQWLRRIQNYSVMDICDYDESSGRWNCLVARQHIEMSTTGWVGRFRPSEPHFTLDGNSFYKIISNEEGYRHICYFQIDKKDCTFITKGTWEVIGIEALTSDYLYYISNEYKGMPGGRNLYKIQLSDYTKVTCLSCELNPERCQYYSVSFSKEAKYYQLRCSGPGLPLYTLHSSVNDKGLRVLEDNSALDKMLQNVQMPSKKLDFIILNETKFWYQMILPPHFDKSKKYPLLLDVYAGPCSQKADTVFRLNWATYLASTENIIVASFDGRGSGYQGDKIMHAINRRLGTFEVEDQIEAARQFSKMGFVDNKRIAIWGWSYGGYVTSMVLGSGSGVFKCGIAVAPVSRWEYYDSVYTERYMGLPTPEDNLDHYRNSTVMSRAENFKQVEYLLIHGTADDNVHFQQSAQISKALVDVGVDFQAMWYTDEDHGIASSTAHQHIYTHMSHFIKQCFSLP

On to `CC(C)C[C@H](N)C(=O)N[C@@H](Cc1ccccc1)C(=O)N[C@@H](Cc1ccc(O)cc1)C(=O)O` [LY3, LFY] (H-Leu-Phe-Tyr-OH; N-terminus assumed), for which, in series [1], the IC50 was found to be 2100 ± 55.2 µM and the inhibition at 2000 µM was 49%.
`CSCC[C@H](N)C(=O)N1CCC[C@H]1C(=O)N[C@@H](Cc1c[nH]cn1)C(=O)N[C@@H](Cc1c[nH]c2ccccc12)C(=O)O` [MW4, MPHW] (H-MPHW-OH; N-terminus assumed): the ACE inhibition mechanism entry in series [2] is given as “competitive inhibitor”. The DPP4 inhibition mechanism result in series [3] was “competitive inhibitors”. For the same compound, the concentration for half-maximal inhibition (IC50) in series [1] came to 128 ± 1.3 µM; in series [5], 172 ± 10.6 µM. The inhibition at 2000 µM in series [1] was 97%. Also, in series [4], the “Stability during simulated gastrointestinal digestion” value is reported as “remained stable; also recorded: neither MW4 nor VF7 was hydrolyzed”.
APLVSW: the IC50 is 145 µM with DPP4 and 9.6 µM in the series with ACE.
Turning to ELF [EF3], in series [1], the DPP4 inhibitory activity is listed as 4%.
Consider HNLPVL [HL6], for which the DPP4 inhibitory activity in series [1] is on record as 12%.
As to LFPNAGY-OH [LY7, LFPNAGY], in series [1], the IC50 came to 913.6 ± 6.7 µM and the inhibition at 2000 µM amounted to 71%.
As to LPSW, the IC50 was 270 µM in the series on DPP4 and 21 µM in the series on ACE.
For MLPQNF-OH [MF6, MLPQNF], in series [1], the half-inhibitory concentration (IC50) is 957 ± 39.2 µM and the inhibition at 2000 µM turned out to be 68%.
As to PAGPF, the IC50 in the series on DPP4 was 136 µM.
As to PLW [PW3], in series [1], the DPP4 inhibitory activity was determined as 6%.
As for RATLPF-OH [RF6, RATLPF], in series [1], the IC50 was 1670 ± 45.4 µM and the inhibition at 2000 µM is 56%.
For the compound VPSGAPF-OH [VF7, VPSGAPF], the DPP4 inhibition mechanism entry in series [3] is “competitive inhibitors”. Besides, in series [1], the IC50 was found to be 151 ± 3.4 µM and the inhibition at 2000 µM was determined as 90%. The “Stability during simulated gastrointestinal digestion” value in series [4] was “remained stable; also recorded: neither MW4 nor VF7 was hydrolyzed”. Moreover, in series [5] (200 µM), the inhibition at 200 µM turned out to be 19%.
Turning to “WALPTQSW [peptide derived from Inca nut seed GP hydrolysate]”, the IC50 is 132 µM in the series on DPP4 and 4.7 µM in the series with ACE.
